Measured values taken from patent US9878978B2, “Processes for the diazotization of 2,5-dichloroanilines” (priority 2013, dated 2018).

Columns and labels:
[1] = Solubility study of 2,5-dichloroaniline in different solvents; format: physicochemical
Experimental: Three different commercially available sources of 2,5-dichloroaniline (Sigma, Acros, and AlfaAesar) were evaluated for solubility in several different solvents under the specific conditions reported in Table 5-A. The 2,5-dichloroaniline obtained from Sigma was evaluated with and without milling.
In contrast, it was insoluble in concentrated hydrochloric acid, 75% sulfuric acid (weight/weight sulfuric acid/water), and formic acid at all temperatures tested. Although 2,5-dichloroaniline was soluble in concentrated sulfuric acid at 80° C., solubility at the lower temperatures tested still was limited. Milling the 2,5-dichloroaniline did appear to improve solubility in concentrated sulfuric acid.
When sulfuric acid was added to the milled or unmilled 2,5-dichloroaniline, the 2,5-dichloroaniline clumped up and formed a “crust” on itself. It is hypothesized that this crust is a 2,5-dichloroaniline sulfate salt that forms and creates a salt capsule enclosing the 2,5-dichloroaniline thereby further reducing 2,5-dichloroaniline solubility. With vigorous stirring by stir bar or paddle-equipped stir rod, the mixture containing the “crusted” 2,5-dichloroaniline typically can be converted to a slurry of the 2,5-dichloroaniline sulfate salt.

[2] = acetic acid/sulfuric acid reaction mixture stored at room temperature for two weeks
[3] = 2,5-Dichlorophenol stability at 120° C. with or without sodium nitrite and sulfamic acid; format: physicochemical; conditions: 120° C. in the various solvents, without sodium nitrite
Experimental: In this study, 2,5-dichlorophenol was stirred at 120° C. in the presence or absence of sodium nitrite and/or sulfamic acid. The 2,5-dichlorophenol itself was stable and either dissolved or melted in the various solvents at 120° C. Upon addition of sodium nitrite to the solution and heating at 120° C. for 30 minutes, all of the solutions had some byproduct formation. The experiments were repeated with sulfamic acid added at 1.1 times the sodium nitrite equivalents with heating to 120° C. for 30 minutes as before. Byproduct formation was reduced, and only the solutions containing sulfuric acid had byproducts.

With Nc1cc(Cl)ccc1Cl [2,5-dichloroaniline] the Solubility ([1]; 75% sulfuric acid (weight/weight sulfuric acid/water), all temperatures tested) was “insoluble”, the Solubility ([1]; Acros, not milled, Conc. H2SO4, molarity 1.12, 10° C.) was “Partial” and the Solubility ([1]; Acros, not milled, Conc. H2SO4, molarity 1.12, 25° C.) was “Soluble”. For the same molecule, the Solubility ([1]; Acros, not milled, Conc. H2SO4, molarity 1.12, 80° C.) was “Soluble”, the Solubility ([1]; Acros, not milled, Conc. H2SO4, molarity 2.24, 10° C.) was “Partial” and the Solubility ([1]; Acros, not milled, Conc. H2SO4, molarity 2.24, 25° C.) was “Partial”. The Solubility ([1]; Acros, not milled, Conc. H2SO4, molarity 2.24, 80° C.) was “Soluble”, the Solubility ([1]; Acros, not milled, Glacial Acetic Acid, molarity 1.12, 10° C.) was “Soluble” and the Solubility ([1]; Acros, not milled, Glacial Acetic Acid, molarity 1.12, 25° C.) was “Soluble”. The Solubility ([1]; Acros, not milled, Glacial Acetic Acid, molarity 1.12, 80° C.) was “Soluble”, the Solubility ([1]; Acros, not milled, Glacial Acetic Acid, molarity 2.24, 10° C.) was “Soluble” and the Solubility ([1]; Acros, not milled, Glacial Acetic Acid, molarity 2.24, 25° C.) was “Soluble”. For the same molecule, the Solubility ([1]; Acros, not milled, Glacial Acetic Acid, molarity 2.24, 80° C.) was “Soluble”, the Solubility ([1]; AlfaAesar, not milled, Conc. H2SO4, molarity 1.12, 10° C.) was “Partial” and the Solubility ([1]; AlfaAesar, not milled, Conc. H2SO4, molarity 1.12, 25° C.) was “Partial”. The Solubility ([1]; AlfaAesar, not milled, Conc. H2SO4, molarity 1.12, 80° C.) was “Soluble”, the Solubility ([1]; AlfaAesar, not milled, Glacial Acetic Acid, molarity 2.24, 10° C.) was “Soluble” and the Solubility ([1]; AlfaAesar, not milled, Glacial Acetic Acid, molarity 2.24, 25° C.) was “Soluble”. The Solubility ([1]; AlfaAesar, not milled, Glacial Acetic Acid, molarity 2.24, 80° C.) was “Soluble”, the Solubility ([1]; Sigma, milled, Conc. H2SO4, molarity 0.58, 10° C.) was “Soluble” and the Solubility ([1]; Sigma, milled, Conc. H2SO4, molarity 0.58, 25° C.) was “Soluble”. For the same molecule, the Solubility ([1]; Sigma, milled, Conc. H2SO4, molarity 1.16, 10° C.) was “Soluble”, the Solubility ([1]; Sigma, milled, Conc. H2SO4, molarity 1.16, 25° C.) was “Soluble” and the Solubility ([1]; Sigma, milled, Conc. H2SO4, molarity 2.13, 10° C.) was “Soluble”. For the same molecule, the Solubility ([1]; Sigma, milled, Conc. H2SO4, molarity 2.13, 25° C.) was “Soluble”, the Solubility ([1]; Sigma, milled, Glacial Acetic Acid, molarity 1.16, 10° C.) was “Soluble” and the Solubility ([1]; Sigma, milled, Glacial Acetic Acid, molarity 1.16, 25° C.) was “Soluble”. For the same molecule, the Solubility ([1]; Sigma, milled, Glacial Acetic Acid, molarity 2.24, 10° C.) was “Soluble”, the Solubility ([1]; Sigma, milled, Glacial Acetic Acid, molarity 2.24, 25° C.) was “Soluble” and the Solubility ([1]; Sigma, not milled, 75% H2SO4, molarity 2.24, 10° C.) was “Insoluble”. The Solubility ([1]; Sigma, not milled, 75% H2SO4, molarity 2.24, 25° C.) was “Insoluble”, the Solubility ([1]; Sigma, not milled, 75% H2SO4, molarity 2.24, 80° C.) was “Insoluble” and the Solubility ([1]; Sigma, not milled, Conc. H2SO4, molarity 2.24, 10° C.) was “Insoluble”. The Solubility ([1]; Sigma, not milled, Conc. H2SO4, molarity 2.24, 25° C.) was “Insoluble”, the Solubility ([1]; Sigma, not milled, Conc. H2SO4, molarity 2.24, 80° C.) was “Soluble” and the Solubility ([1]; Sigma, not milled, Conc. HCl, molarity 2.24, 10° C.) was “Insoluble”. The Solubility ([1]; Sigma, not milled, Conc. HCl, molarity 2.24, 25° C.) was “Insoluble”, the Solubility ([1]; Sigma, not milled, Conc. HCl, molarity 2.24, 80° C.) was “Insoluble” and the Solubility ([1]; Sigma, not milled, Formic Acid (88%), molarity 2.24, 10° C.) was “Insoluble”. The Solubility ([1]; Sigma, not milled, Formic Acid (88%), molarity 2.24, 25° C.) was “Insoluble”, the Solubility ([1]; Sigma, not milled, Formic Acid (88%), molarity 2.24, 80° C.) was “Insoluble” and the Solubility ([1]; Sigma, not milled, Glacial Acetic Acid, molarity 2.24, 25° C.) was “Soluble”. The Solubility ([1]; Sigma, not milled, Glacial Acetic Acid, molarity 2.24, 80° C.) was “Soluble”, the Solubility ([1]; Sigma, not milled, Trifluoracetic Acid, molarity 2.24, 10° C.) was “Soluble” and the Solubility ([1]; Sigma, not milled, Trifluoracetic Acid, molarity 2.24, 25° C.) was “Soluble”. The Solubility ([1]; Sigma, not milled, Trifluoracetic Acid, molarity 2.24, 80° C.) was “Soluble”, the Solubility ([1]; acetic acid, all temperatures) was “readily soluble” and the Solubility ([1]; concentrated hydrochloric acid, all temperatures tested) was “insoluble”. The Solubility ([1]; concentrated sulfuric acid, 80° C.) was “soluble”, the Solubility ([1]; concentrated sulfuric acid, lower temperatures tested) was “limited” and the Solubility ([1]; formic acid, all temperatures tested) was “insoluble”. For the same molecule, the Solubility ([1]; trifluoroacetic acid, all temperatures) was “readily soluble”.
For N#[N+]c1cc(Cl)ccc1Cl [2,5-Dichlorobenzene diazonium, 2,5-dichlorobenzenediazonium], the Degradation on storage [2] was “no degradation”.
With Oc1cc(Cl)ccc1Cl [2,5-dichlorophenol] the Stability [3] was “stable”.
